# Results: ChEMBL document CHEMBL1201862, “PubChem BioAssay data set” (2004)
# Active and inactive are the calls of the source.
# Assays:
# Cytochrome P450 1A2 = biological target: T1, Cytochrome P450 1A2 (Homo sapiens, UniProt P05177);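 note: PubChem cytochrome P450 panel assay, CYP1A2 panel member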
# T1 sequence (P05177 whole entry): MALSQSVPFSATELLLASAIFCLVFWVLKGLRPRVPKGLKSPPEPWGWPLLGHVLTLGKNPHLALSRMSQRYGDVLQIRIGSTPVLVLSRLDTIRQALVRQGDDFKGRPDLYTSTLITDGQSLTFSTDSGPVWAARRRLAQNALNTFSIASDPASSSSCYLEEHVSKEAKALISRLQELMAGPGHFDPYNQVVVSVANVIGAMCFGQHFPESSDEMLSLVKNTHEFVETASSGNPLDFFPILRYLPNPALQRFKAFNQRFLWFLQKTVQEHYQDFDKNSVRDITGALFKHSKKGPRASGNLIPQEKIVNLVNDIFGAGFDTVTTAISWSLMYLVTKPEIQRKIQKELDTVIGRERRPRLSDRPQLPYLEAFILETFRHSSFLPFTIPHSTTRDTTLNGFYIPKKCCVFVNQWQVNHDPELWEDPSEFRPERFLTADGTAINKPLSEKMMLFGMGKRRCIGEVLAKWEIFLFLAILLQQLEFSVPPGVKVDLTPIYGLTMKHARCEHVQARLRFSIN
# [1] = biological target: T2, Rac GTPase-activating protein 1 (Homo sapiens, UniProt Q9H0H5); assay: MgcRacGAP GTPase-activating activity inhibitors, confirmation, biochemical, ADP Hunter fluorescence, primary and confirmatory (AID 624330); format: functional
# T2 sequence (Q9H0H5 whole entry): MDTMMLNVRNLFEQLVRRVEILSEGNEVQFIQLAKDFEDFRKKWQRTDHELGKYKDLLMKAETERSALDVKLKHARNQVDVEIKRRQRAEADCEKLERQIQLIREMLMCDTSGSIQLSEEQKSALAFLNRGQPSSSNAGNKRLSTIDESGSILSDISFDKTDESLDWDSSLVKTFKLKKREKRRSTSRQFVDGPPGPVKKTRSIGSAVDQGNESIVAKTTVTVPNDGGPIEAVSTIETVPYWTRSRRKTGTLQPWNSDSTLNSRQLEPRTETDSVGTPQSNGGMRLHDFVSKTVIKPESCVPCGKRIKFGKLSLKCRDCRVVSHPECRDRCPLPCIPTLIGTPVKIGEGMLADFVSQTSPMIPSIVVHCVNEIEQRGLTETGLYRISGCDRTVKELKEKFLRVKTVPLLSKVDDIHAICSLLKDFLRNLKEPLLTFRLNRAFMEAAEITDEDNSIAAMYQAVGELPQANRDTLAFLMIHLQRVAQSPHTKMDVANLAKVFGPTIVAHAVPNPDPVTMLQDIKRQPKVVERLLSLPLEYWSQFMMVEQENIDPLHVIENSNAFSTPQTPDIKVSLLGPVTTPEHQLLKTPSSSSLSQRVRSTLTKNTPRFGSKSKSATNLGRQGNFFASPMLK
# Protein RecA = biological target: T3, Protein RecA (Mycobacterium tuberculosis, UniProt P9WHJ3); assay: Fluorescence Cell-Free Homogeneous Dose Retest to Identify Inhibitors of RecA-Intein Splicing Activity. [Related pubchem assays (depositor defined):AID2097, AID2223, AID489010, AID492950]; format: functional
# T3 sequence (P9WHJ3 whole entry): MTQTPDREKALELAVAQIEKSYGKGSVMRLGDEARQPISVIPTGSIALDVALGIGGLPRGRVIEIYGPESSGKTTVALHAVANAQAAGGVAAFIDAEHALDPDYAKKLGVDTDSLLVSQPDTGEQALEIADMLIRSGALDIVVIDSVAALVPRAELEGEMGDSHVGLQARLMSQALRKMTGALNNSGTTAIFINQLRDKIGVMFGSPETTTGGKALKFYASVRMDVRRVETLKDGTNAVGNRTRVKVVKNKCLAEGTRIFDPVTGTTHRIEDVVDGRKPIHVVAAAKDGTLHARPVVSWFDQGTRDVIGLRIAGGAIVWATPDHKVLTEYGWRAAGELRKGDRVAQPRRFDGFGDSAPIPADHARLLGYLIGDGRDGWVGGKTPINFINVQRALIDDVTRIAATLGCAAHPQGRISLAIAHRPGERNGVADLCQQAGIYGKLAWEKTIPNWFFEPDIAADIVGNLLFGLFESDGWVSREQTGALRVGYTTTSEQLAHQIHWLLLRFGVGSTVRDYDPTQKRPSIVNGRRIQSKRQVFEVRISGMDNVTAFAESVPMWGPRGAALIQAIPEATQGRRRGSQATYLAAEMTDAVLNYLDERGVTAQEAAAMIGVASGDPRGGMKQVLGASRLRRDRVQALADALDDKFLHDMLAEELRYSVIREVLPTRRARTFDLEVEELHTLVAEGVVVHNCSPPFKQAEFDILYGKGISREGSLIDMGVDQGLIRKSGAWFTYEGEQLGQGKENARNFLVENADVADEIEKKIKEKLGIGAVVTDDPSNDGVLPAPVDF
# [2] = biological target: T4, Replicative DNA helicase DnaB (Mycobacterium tuberculosis, UniProt P9WMR3); assay: DnaB intein splicing inhibitors, dose response, biochemical, cell-free fluorescence (AID 449749); format: functional
# T4 sequence (P9WMR3 whole entry): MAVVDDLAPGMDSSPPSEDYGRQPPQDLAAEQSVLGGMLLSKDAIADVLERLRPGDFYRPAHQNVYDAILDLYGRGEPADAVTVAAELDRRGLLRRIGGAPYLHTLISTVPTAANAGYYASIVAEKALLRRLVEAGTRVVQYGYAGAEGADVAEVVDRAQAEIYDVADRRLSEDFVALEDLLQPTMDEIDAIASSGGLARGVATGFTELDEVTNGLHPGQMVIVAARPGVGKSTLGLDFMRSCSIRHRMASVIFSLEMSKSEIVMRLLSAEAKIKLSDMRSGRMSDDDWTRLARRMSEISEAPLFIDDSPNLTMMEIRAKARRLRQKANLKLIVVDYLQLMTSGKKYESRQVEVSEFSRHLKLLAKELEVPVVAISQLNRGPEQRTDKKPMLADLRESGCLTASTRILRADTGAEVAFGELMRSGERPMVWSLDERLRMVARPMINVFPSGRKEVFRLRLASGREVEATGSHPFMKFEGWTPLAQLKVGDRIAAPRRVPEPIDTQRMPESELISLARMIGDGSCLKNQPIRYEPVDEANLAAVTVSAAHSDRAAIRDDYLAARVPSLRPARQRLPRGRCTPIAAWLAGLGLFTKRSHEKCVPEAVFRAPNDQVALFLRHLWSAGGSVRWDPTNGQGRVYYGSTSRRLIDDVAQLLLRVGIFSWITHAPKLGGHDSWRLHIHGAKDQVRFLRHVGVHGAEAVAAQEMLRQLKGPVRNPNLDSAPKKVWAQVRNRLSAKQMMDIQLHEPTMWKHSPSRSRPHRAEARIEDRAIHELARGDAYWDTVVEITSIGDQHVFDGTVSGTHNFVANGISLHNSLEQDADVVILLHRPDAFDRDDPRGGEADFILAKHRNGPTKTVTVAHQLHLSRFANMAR
# [3] = NIH-3T3 fibroblast cytotoxicity, dose response, cytotoxicity control, cell-based, fluorescence, Alamar Blue, secondary assay (AID 2327); format: functional;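 note: NIH-3T3 mouse fibroblasts cultured with fluconazole at 8 µg/mL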
# Cytochrome P450 2C9 = Cytochrome P450 2C9 (Homo sapiens, UniProt P11712)
# Sequence of Cytochrome P450 2C9 (P11712 whole entry): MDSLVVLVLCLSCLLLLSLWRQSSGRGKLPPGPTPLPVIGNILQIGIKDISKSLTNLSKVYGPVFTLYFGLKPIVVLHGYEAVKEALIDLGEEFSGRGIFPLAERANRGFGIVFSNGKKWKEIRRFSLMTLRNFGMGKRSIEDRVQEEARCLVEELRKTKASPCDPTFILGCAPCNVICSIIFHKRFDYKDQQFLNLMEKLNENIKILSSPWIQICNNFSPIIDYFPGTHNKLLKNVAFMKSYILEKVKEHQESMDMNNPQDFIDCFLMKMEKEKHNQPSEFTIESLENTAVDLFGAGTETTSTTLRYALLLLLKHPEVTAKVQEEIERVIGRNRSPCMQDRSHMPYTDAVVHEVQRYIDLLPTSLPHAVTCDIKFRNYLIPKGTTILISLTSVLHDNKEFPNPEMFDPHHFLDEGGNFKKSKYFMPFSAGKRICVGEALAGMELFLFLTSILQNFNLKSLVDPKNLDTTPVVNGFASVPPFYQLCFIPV
# [4] = inhibitors of SNCA 5'UTR-driven reporter translation, confirmation, H4 neuroglioma cells, luminescence (AID 1988); format: functional, cell-based
# [5] = inhibitors of firefly luciferase expression or activity, dose response, H4 neuroglioma cells, luminescence (AID 1990); format: functional, cell-based
# [6] = Luminescence Cell-Based Dose Response HTS to Identify Inhibitors of 5'UTR Stem-Loop Driven Prion Protein mRNA Translation in H4 Neuroglioblastoma Cells. [Related pubchem assays: 1827 (Project Summary), 1813 (Primary HTS)]; format: functional
# Paired box protein Pax-8 = Paired box protein Pax-8 (Homo sapiens, UniProt Q06710); assay: inhibitors of PAX8-driven TPO luciferase reporter, dose response, RMG-I cells, cherry-pick (AID 687027); format: functional, cell-based;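 note: luciferase reporter driven by Pax8 target thyroperoxidase promoter measured by SteadyGlo luminescence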
# Sequence of Paired box protein Pax-8 (Q06710 whole entry): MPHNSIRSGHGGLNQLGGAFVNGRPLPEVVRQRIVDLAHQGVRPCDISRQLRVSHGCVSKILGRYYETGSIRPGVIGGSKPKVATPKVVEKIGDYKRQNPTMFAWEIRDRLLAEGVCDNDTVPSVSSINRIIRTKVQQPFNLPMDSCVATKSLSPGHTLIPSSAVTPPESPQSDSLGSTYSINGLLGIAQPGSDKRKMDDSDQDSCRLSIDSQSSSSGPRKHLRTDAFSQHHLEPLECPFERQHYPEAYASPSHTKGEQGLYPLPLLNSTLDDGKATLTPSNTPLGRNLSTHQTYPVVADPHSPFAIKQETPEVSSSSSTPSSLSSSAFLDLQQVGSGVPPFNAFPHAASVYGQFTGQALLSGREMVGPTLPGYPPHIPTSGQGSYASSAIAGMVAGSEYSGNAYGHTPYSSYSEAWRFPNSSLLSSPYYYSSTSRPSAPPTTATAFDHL
# P388/ADR = assay: cells; format: functional; conditions: Mus musculus
smiles,measurement,setting,value
COC(=O)[C@@]1(Cc2ccccc2)[C@H]2c3cc(C(=O)N4CCCC4)n(C)c3C[C@H]2CN1C(=O)c1ccccc1,AC50,Cytochrome P450 1A2,25.1 µM (inconclusive)
CC(NCc1ccc(S(N)(=O)=O)cc1)C(=O)N1c2ccccc2CC1C (configuration not stated),IC50,[1],135 µM (active)
O=C(NC(=C(Cl)Cl)S(=O)(=O)c1ccc(Cl)cc1)c1ccccc1,EC50,Protein RecA,1.53 µM (active)
same,AC50,[2],> 380 µM (inactive)
CCOC(=O)/C(C#N)=C1\C(=O)N(Cc2ccccc2)c2ccccc21,IC50,[1],42.4 µM (active)
COC(=O)c1ccccc1OC(=O)c1ccc(Br)o1,EC50,Protein RecA,15.2 µM (active)
same,AC50,[2],12.8 µM (active)
O=c1c2ccccc2nc(-c2ccc([N+](=O)[O-])cc2)n1O,EC50,[3],> 150 µM (inactive)
CCOc1cc(C(c2c(C)n[nH]c2O)c2c(C)n[nH]c2O)ccc1OS(=O)(=O)c1ccc(C)cc1,EC50,Protein RecA,0.152 µM (active)
same,AC50,[2],0.413 µM (active)
CC1(C)SC(=S)N(NC(=O)Nc2ccccc2)C1N(O)C(=O)Nc1ccccc1 (configuration not stated),AC50,Cytochrome P450 1A2,28.2 µM (inconclusive)
COc1ccc(CN2CN(c3ccc(Cl)cc3)C(=O)N(n3cnnc3)C2)cc1,AC50,Cytochrome P450 2C9,39.8 µM (inconclusive)
same,AC50,Cytochrome P450 1A2,15.8 µM (inconclusive)
CCN(Cc1ccccc1)C1CCN(Cc2ccc(SC)cc2)CC1,IC50,[1],100 µM (active)
CCNC(=O)c1ccccc1-c1nc(-c2ccccc2)no1,EC50,Protein RecA,> 380 µM (inactive)
same,AC50,[2],> 380 µM (inactive)
CN(C)c1ncc2nc(-c3ccccc3)c(=O)n(Cc3ccc(F)cc3)c2n1,AC50,Cytochrome P450 1A2,12.6 µM (inconclusive)
CN(C)CCn1c(C(=O)O)cc2ccccc21,AC50,Cytochrome P450 1A2,0.0158 µM (inconclusive)
COc1cccc(C2Nc3ccccc3C(=O)N2Cc2ccccc2)c1 (configuration not stated),EC50,[4],> 120 µM (not active)
same,EC50,[5],> 120 µM (not active)
same,EC50,[6],> 120 µM (not active)
COC(=O)c1ccccc1OCC(=O)N1CCN(c2ccc(Cl)cc2)CC1,AC50,Cytochrome P450 2C9,14.1 µM (inconclusive)
same,AC50,Cytochrome P450 1A2,14.1 µM (inconclusive)
O=C(CNCc1ccc(Cl)cc1)Nc1ccc2c(c1)OCCO2,IC50,[1],156 µM (active)
CN1C(=O)C(Cc2ccc3c(c2)OCO3)C(=O)N(C)C1=O,EC50,Protein RecA,10 µM (active)
same,AC50,[2],35.3 µM (active)
COc1cc(N)c(Cc2nccc3cc(OC)c(OC)cc23)cc1OC,EC50,Protein RecA,31.7 µM (active)
same,AC50,[2],> 380 µM (inactive)
Cc1ccc(N2C(S)=C(C#N)C(=O)NC2c2cccs2)cc1 (configuration not stated),IC50,[1],128 µM (active)
c1ccc(SC(Sc2ccccc2)c2ccc3c(c2)OCO3)cc1,AC50,Cytochrome P450 1A2,0.501 µM (inconclusive)
Cc1ccccc1OC[C@H](O)CO,AC50,Cytochrome P450 1A2,15.8 µM (inconclusive)
COc1ccc(S(=O)(=O)NC2(C(F)(F)F)N=C3SCCN3C2=O)cc1 (configuration not stated),AC50,Cytochrome P450 2C9,28.2 µM (inconclusive)
same,AC50,Cytochrome P450 1A2,31.6 µM (inconclusive)
CC1=NNC(=O)C1Cc1ccccc1 (configuration not stated),EC50,Protein RecA,0.294 µM (active)
same,AC50,[2],0.651 µM (active)
Cc1onc(-c2c(Cl)cccc2Cl)c1C(=O)N1C(C)CCCC1C (configuration not stated),EC50,Protein RecA,> 380 µM (inactive)
same,AC50,[2],118 µM (active)
COc1ccc(F)cc1-c1cc(NC=O)c2ncc(-c3cc(OC)c(OC)c(OC)c3)n2c1,AC50,Paired box protein Pax-8,3.49 µM (active)
C/C=C(\C)C(=O)OC1C2C(C)=CC(=O)C(O)C2(C)C2C3(O)OCC24C1OC(=O)C(OC(C)=O)C4C(C)C3O (configuration not stated),GI50,P388/ADR,0.319 µM (active)
Oc1ccc(-c2nccs2)cc1,IC50,[1],28.1 µM (active)
COc1cc(C(=O)NCC(c2cccs2)N2CCOCC2)ccc1OCc1ccc(Cl)cc1 (configuration not stated),AC50,Paired box protein Pax-8,22 µM (active)
Cc1ccc(S(=O)(=O)Nc2ccc3c(c2)C(=O)N([C@H](C)CO)C[C@H](C)[C@H](CN(C)C(=O)c2ccccc2)OCCCC[C@H](C)O3)cc1,AC50,Paired box protein Pax-8,19.4 µM (active)
COc1ccc(S(=O)(=O)Nc2ccc3c(c2)C(=O)N([C@@H](C)CO)C[C@H](C)[C@H](CN(C)Cc2ccc(C(F)(F)F)cc2)OCCCC[C@@H](C)O3)cc1,AC50,Paired box protein Pax-8,7.68 µM (active)
C=CCc1cccc(/C=N/c2cnc(O)nc2O)c1O,EC50,Protein RecA,> 380 µM (inconclusive)
same,AC50,[2],> 380 µM (inactive)
CC1(C)OC(C)(C)C(/C=N/c2ccc(O)cc2)=C1O,IC50,[1],17 µM (active)
O=C(N/N=C/c1ccc(O)cc1)NC12CC3CC(CC(C3)C1)C2,IC50,[1],55.9 µM (active)
